Data from ChEMBL document CHEMBL3774384, “Synthesis of fusidic acid bioisosteres as antiplasmodial agents and molecular docking studies in the binding site of elongation factor-G” (Medchemcomm, 2015).

What was measured:
Plasmodium falciparum [1] = assay: Antiplasmodial activity against chloroquine sensitive Plasmodium falciparum NF54 infected in human RBC after 48 hrs by [3H]hypoxanthine incorporation assay; format: functional, organism-based
CHO = assay: Cytotoxicity against CHO assessed as cell viability after 48 hrs by MTT assay; format: cell-based; conditions: Cricetulus griseus
[2] = Selectivity index, ratio of IC50 for CHO cells to IC50 for Plasmodium falciparum NF54; format: toxicity, cell-based; conditions: hamster, read-out: Ratio IC50
Plasmodium falciparum [3] = assay: Antiplasmodial activity against Plasmodium falciparum D10 infected in human RBC after 48 to 96 hrs by SYBR Green I dye-based fluorescence assay; format: functional, organism-based
[4] = Stability in RPMI medium supplemented with HEPES, NaHCO3, Neomycin and Albumax II after 48 hrs; format: physicochemical

| SMILES | IC50 (Plasmodium falciparum [1]) [µM] | IC50 (CHO) [µM] | selectivity ratio [2] | IC50 (Plasmodium falciparum [3]) [µM] | Stability [4] |
| --- | --- | --- | --- | --- | --- |
| CC(=O)O[C@H]1C[C@@]2(C)[C@@H](C[C@@H](O)[C@H]3[C@@]4(C)CC[C@@H](O)[C@@H](C)[C@@H]4CC[C@@]32C)/C1=C(\CCC=C(C)C)c1n[nH]c(=S)o1 | 7 | 70 | 10 |  |  |
| CC(=O)O[C@H]1C[C@@]2(C)[C@@H](C[C@@H](O)[C@H]3[C@@]4(C)CC[C@@H](O)[C@@H](C)[C@@H]4CC[C@@]32C)/C1=C(\CCC=C(C)C)C(=O)NNS(=O)(=O)c1ccc(Cl)cc1 | 31.3 | 53.2 | 2 |  |  |
| CCCS(=O)(=O)NNC(=O)/C(CCC=C(C)C)=C1\[C@@H](OC(C)=O)C[C@@]2(C)[C@H]1C[C@@H](O)[C@H]1[C@@]3(C)CC[C@@H](O)[C@@H](C)[C@@H]3CC[C@@]12C | 5.7 | 79.7 | 14 |  |  |
| C[C@H]1[C@H](OC(=O)CCC(=O)O)O[C@@H]2O[C@@]3(C)CC[C@H]4[C@H](C)CC[C@@H]1[C@@]24OO3 [ARTESUNATE] | 0.004 |  |  |  |  |
| CC(=O)O[C@H]1C[C@@]2(C)[C@@H](C[C@@H](O)[C@H]3[C@@]4(C)CC[C@@H](O)[C@@H](C)[C@@H]4CC[C@@]32C)/C1=C(\CCC=C(C)C)c1nc(-c2ccc(F)cc2)no1 | 1.7 | 77.4 | 46 |  |  |
| CC(=O)O[C@H]1C[C@@]2(C)[C@@H](C[C@@H](O)[C@H]3[C@@]4(C)CC[C@@H](O)[C@@H](C)[C@@H]4CC[C@@]32C)/C1=C(\CCC=C(C)C)C(N)=O | 35.9 | 113 | 3 |  |  |
| CCCCS(=O)(=O)NNC(=O)/C(CCC=C(C)C)=C1\[C@@H](OC(C)=O)C[C@@]2(C)[C@H]1C[C@@H](O)[C@H]1[C@@]3(C)CC[C@@H](O)[C@@H](C)[C@@H]3CC[C@@]12C | 8 | 49.9 | 6 |  |  |
| CC(=O)O[C@H]1C[C@@]2(C)[C@@H](C[C@@H](O)[C@H]3[C@@]4(C)CC[C@@H](O)[C@@H](C)[C@@H]4CC[C@@]32C)/C1=C(\CCC=C(C)C)C(=O)NS(C)(=O)=O | > 15 | > 169 |  |  |  |
| CC(=O)O[C@H]1C[C@@]2(C)[C@@H](C[C@@H](O)[C@H]3[C@@]4(C)CC[C@@H](O)[C@@H](C)[C@@H]4CC[C@@]32C)/C1=C(\CCC=C(C)C)C(=O)NN | 21.3 | 112 | 5 |  |  |
| CC(=O)O[C@H]1C[C@@]2(C)[C@@H](C[C@@H](O)[C@H]3[C@@]4(C)CC[C@@H](O)[C@@H](C)[C@@H]4CC[C@@]32C)/C1=C(\CCC=C(C)C)c1nc(C)no1 | 3.8 | 47.8 | 13 |  |  |
| CC(=O)O[C@H]1C[C@@]2(C)[C@@H](C[C@@H](O)[C@H]3[C@@]4(C)CC[C@@H](O)[C@@H](C)[C@@H]4CC[C@@]32C)/C1=C(\CCC=C(C)C)C(=O)NNS(=O)(=O)c1ccc(C)cc1 | 13.4 | 48.2 | 4 |  |  |
| CC(=O)O[C@H]1C[C@@]2(C)[C@@H](C[C@@H](O)[C@H]3[C@@]4(C)CC[C@@H](O)[C@@H](C)[C@@H]4CC[C@@]32C)/C1=C(\CCC=C(C)C)C(=O)NS(=O)(=O)c1ccccc1 | > 15 | 96.1 |  |  |  |
| CC(=O)O[C@H]1C[C@@]2(C)[C@@H](C[C@@H](O)[C@H]3[C@@]4(C)CC[C@@H](O)[C@@H](C)[C@@H]4CC[C@@]32C)/C1=C(\CCC=C(C)C)C(=O)NS(=O)(=O)c1ccc(F)c(F)c1 | 7.3 | 81.4 | 11 |  |  |
| CC(=O)O[C@H]1C[C@@]2(C)[C@@H](C[C@@H](O)[C@H]3[C@@]4(C)CC[C@@H](O)[C@@H](C)[C@@H]4CC[C@@]32C)/C1=C(\CCC=C(C)C)c1n[nH]c(=O)o1 | 9.2 | 82 | 9 |  |  |
| CCS(=O)(=O)NNC(=O)/C(CCC=C(C)C)=C1\[C@@H](OC(C)=O)C[C@@]2(C)[C@H]1C[C@@H](O)[C@H]1[C@@]3(C)CC[C@@H](O)[C@@H](C)[C@@H]3CC[C@@]12C | 12.4 | 77.3 | 6 |  |  |
| CC(=O)O[C@H]1C[C@@]2(C)[C@@H](C[C@@H](O)[C@H]3[C@@]4(C)CC[C@@H](O)[C@@H](C)[C@@H]4CC[C@@]32C)/C1=C(\CCC=C(C)C)C(=O)NC#N | 10.8 | > 185 | > 17 |  |  |
| CC(=O)O[C@H]1C[C@@]2(C)[C@@H](C[C@@H](O)[C@H]3[C@@]4(C)CC[C@@H](O)[C@@H](C)[C@@H]4CC[C@@]32C)/C1=C(\CCC=C(C)C)C(=O)NNC(=O)c1cccs1 | 8.4 | 78.8 | 9 |  |  |
| CCc1noc(/C(CCC=C(C)C)=C2\[C@@H](OC(C)=O)C[C@@]3(C)[C@H]2C[C@@H](O)[C@H]2[C@@]4(C)CC[C@@H](O)[C@@H](C)[C@@H]4CC[C@@]23C)n1 | 1.9 | 71.7 | 38 |  |  |
| CCCc1noc(/C(CCC=C(C)C)=C2\[C@@H](OC(C)=O)C[C@@]3(C)[C@H]2C[C@@H](O)[C@H]2[C@@]4(C)CC[C@@H](O)[C@@H](C)[C@@H]4CC[C@@]23C)n1 | 2.1 | 68.2 | 32 |  |  |
| CC(=O)O[C@H]1C[C@@]2(C)[C@@H](C[C@@H](O)[C@H]3[C@@]4(C)CC[C@@H](O)[C@@H](C)[C@@H]4CC[C@@]32C)/C1=C(\CCC=C(C)C)C(=O)O [FUSIDIC ACID] | 59 | > 194 | > 3 | 52.8 | Stable |
| CC(=O)O[C@H]1C[C@@]2(C)[C@@H](C[C@@H](O)[C@H]3[C@@]4(C)CC[C@@H](O)[C@@H](C)[C@@H]4CC[C@@]32C)/C1=C(\CCC=C(C)C)C(=O)Nc1nn[nH]n1 | > 15 | > 171 |  |  |  |
